The term IC50 denotes the midpoint of a concentration-inhibition curve.

Values after ≈ are worked out from the molar mass of the structure shown. A value given as a limit tells only on which side of the number the result lay.

In one data set the test system is E. coli ∆nfsB. The data set can be described thus: microbe, parasite or virus in culture. As to conditions: Escherichia coli, read-out: MIC ∆nfsB. Type of data set: cell-based. The method, then: To assess the biological relevance of the interacting protein and establish the link between nitroreductases to the antibacterial activity of NTC compounds, single (ΔnfsA or ΔnfsB) and double knockouts (ΔnfsA & ΔnfsB) of nitroreductases were generated by phage transduction using strains from the Keio collection.
(§1) The inoculum used for all the experiments is derived from a single seed lot that is maintained as glycerol stocks at −80 °C and are sub cultured on LB plate for isolated colonies. Single colony of each strain is grown in M9 medium. All test compound stocks and dilutions are prepared in DMSO. Serial two-fold dilutions of compounds are prepared separately, with the concentrations ranging from 2 mg/mL to 0.015 mg/mL. To 150 µl (3–7 × 10^5 CFU/ml) of bacterial culture in 96 well microtitre plates, 3 μL compound from each of the dilutions is added to respective wells to obtain final concentrations ranging from 40 µg/mL to 0.3 µg/mL of the test compounds. Media control, culture control and appropriate reference drug controls are included. […] Growth is monitored by checking absorbance at 600 nm (A600). […] The samples from MIC and above concentrations are plated for MBC (Minimum Bactericidal Concentration). The samples are diluted 1:10 and plated on LB agar plates. […] The killing kinetics is determined by enumerating survivors at various time points following compound exposure. E. coli cells (~10^7 CFU/ml; A600 of 0.1) are treated with various concentrations (40 µg/mL to 0.3 µg/mL) of compounds in a 96-well microtitre plate. At various time intervals (0 to 8 h), 30 μl volumes of treated cultures are serially diluted and plated on LB agar plates. […] Data is expressed as the log10 CFU for each drug treatment.
The wild-type E. coli strain BW25113 and the entire Keio collection of knockouts[22] is maintained as glycerol stocks at −80 °C in 96-well deep well blocks. […] These are sub cultured in 150 µl of LB broth (Kanamycin 50 ug/ml, except for the wild-type strain) in 96 well microtiter plates and then adapted into M9 medium with 0.4% glucose. […] Cultures of single gene knockouts that show an altered MIC as compared to that of the wild type are scored as ‘Hits’.

Another data set deals with T1, NfsB (Escherichia coli, UniProt P38489).
T1 construct: His-tag; made in house; host or cells: E. coli BL21(DE3), pET28a (pET-nfsB)
The data set is described as follows: Nitroreductase activity assay, NfsB. The class given is biochemical, E. coli. To be noted: 20 μM compound, 40 μM NADH, 70 nM NfsB; slope of initial velocity. The method, then:
(§2) Enzyme reducing each of the substrates are measured by monitoring the concomitant oxidation of NADPH by NfsA and NADH by NfsB in a fluorescence based assay. The reduction in fluorescence due to the NADH oxidation (excitation 350 nm, emission 460 nm) and NADPH oxidation (excitation 340 nm, emission 485 nm) is recorded using a TECAN Infinite M200Pro spectrophotometer, in half area solid black microtiter plates. This change in fluorescence directly corelates to the reduction of the nitro-compounds in the reaction. The NfsA assays is performed by initiating the reactions with 40 μM NADPH and 10 nM NfsA in 50 mM Tris-HCl (pH 7.4), 5 mM EDTA against 20 μM substrate (5 μl of compounds/substrate dissolved in 100% DMSO) in a total reaction volume of 100 μl at 25 °C. Similarly, the NfsB assay is also performed by initiating the reactions with 40 μM NADH and 70 nM NfsB in 50 mM Tris-HCl (pH 7.4), 5 mM EDTA against 20 μM substrate in a total reaction volume of 100 μl. […] All reactions are performed in replicates of two or more and the fluorescence measurements are made at 10 second intervals for 5–10 minutes.
(§3) Low solubility of the compounds/substrates under the NfsA and NfsB assay conditions precluded determination of their Km. […] The relative fluorescence units (RFU) obtained due to NADPH (excitation 340 nm, emission 485 nm) or NADH (excitation 350 nm, emission 460 nm) oxidation of the first 90 sec reaction is used to compute the slopes using linear regression analysis on GraphPad Prism. Appropriate blank reactions are included to account for background fluorescence/quenching from each of the components such as DMSO, the compound itself and auto-oxidation of NADPH or NADH. Activity of NfsB with a known substrate such as nitrofurantoin is used as a benchmark to plot the relative activities with all the test compounds.

Another data set has as its target T2, NfsA (Escherichia coli, UniProt P17117).
T2 construct: His-tag; made in house; host or cells: E. coli BL21(DE3), pET28a (pET-nfsA)
The data set can be described thus: Nitroreductase activity assay, NfsA. The class given is biochemical, E. coli. To be noted: 20 μM compound, 40 μM NADPH, 10 nM NfsA; slope of initial velocity. Here is the method:
as §2, §3

Data set [1] has as its system E. coli ∆nfsAB & ∆acrB+nfnB. Also noted: unit not given beside the values. Here is the method:
as §1

Another data set is described as follows: Cytotoxicity, MTS assay. Type of data set: cell-based. As to conditions: human, A549 cells. The method, then: Cytotoxicity of the compounds was evaluated using MTS ((3-(4,5-dimethylthiazol-2-yl)-5-(3-carboxymethoxyphenyl)-2-(4-sulfophenyl)-2H-tetrazolium)) assay. A-549 cells were seeded in a 96 well plate at a density if 1.5 × 10^4 cells/well (100 μL). The cells were cultured in a CO2 incubator at 37 °C. A ten point concentration curve was set up starting from 5 nM to 100 μM with 3 fold dilution along with positive, negative and blank controls. The final concentration of DMSO was maintained at 1% throughout the plate. The compound treatment was carried out for 24 hrs. After incubation MTS reagent was added followed by 30 min incubation. The absorbance was measured at 490 nm. Data analysis was done using GraphPad Prism 6.0.
A general note: Tetrazolium assays rely on reduction of a dye to a coloured formazan, in cell work by metabolically active cells.

The test system of data set [2] is Klebsiella pneumoniae ATCC13883. The data set is described as follows: MIC, Klebsiella pneumoniae. Type of data set: cell-based. To be noted: for MIC Klebsiella pneumoniae: ATCC13883; for fold lower potency in comparison to E. coli WT MIC: WT K. pneumoniae ATCC strain. The method, then: as §1

T1 sequence (P38489 whole entry): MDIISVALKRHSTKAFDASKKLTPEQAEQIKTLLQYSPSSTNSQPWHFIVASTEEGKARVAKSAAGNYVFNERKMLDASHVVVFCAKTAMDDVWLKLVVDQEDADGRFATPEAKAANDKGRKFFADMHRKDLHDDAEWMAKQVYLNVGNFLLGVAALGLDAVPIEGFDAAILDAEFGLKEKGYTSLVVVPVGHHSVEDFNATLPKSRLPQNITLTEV
T2 sequence (P17117 whole entry): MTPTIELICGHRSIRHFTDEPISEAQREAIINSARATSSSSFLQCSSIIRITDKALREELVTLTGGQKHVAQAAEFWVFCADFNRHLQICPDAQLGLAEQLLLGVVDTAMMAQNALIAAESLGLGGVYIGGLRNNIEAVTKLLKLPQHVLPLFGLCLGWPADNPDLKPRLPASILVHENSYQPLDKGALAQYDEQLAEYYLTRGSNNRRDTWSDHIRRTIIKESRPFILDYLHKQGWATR

For the compound `Cc1sc(NC(=O)c2ccc([N+](=O)[O-])s2)nc1-c1ccccc1` [compound 7, N-(5-Methyl-4-phenylthiazol-2-yl)-5-nitrothiophene-2-carboxamide], the MIC in the data set on E. coli ∆nfsB was over 40 µg/mL. The “NfsB activity (rate of compound conversion)” value (from here on “NfsB activity”) at NfsB worked out at 6.17 µM/min. In addition, the “NfsA activity (rate of compound conversion)” value (“NfsA activity” below) at NfsA was 0.64 µM/min.

For the compound `O=C(Nc1nc(-c2ccc(F)cc2F)cs1)c1ccc([N+](=O)[O-])s1` [compound 12, N-(4-(2,4-difluorophenyl)thiazol-2-yl)-5-nitrothiophene-2-carboxamide], the “MIC ∆nfsAB & ∆acrB+nfnB” value in data set [1] came to 0.3. In addition, in the data set on E. coli ∆nfsB, the MIC amounted to 2.5 µg/mL (≈ 6.81 µM). In the data set “Cytotoxicity, MTS assay”, this compound returned an IC50 at 24 h of 16.9 µg/mL (≈ 46 µM). Besides, the “NfsB activity” value at NfsB came to 6.26 µM/min. Besides, in data set [2], the MIC Klebsiella pneumoniae turned out to be 2.5 µg/mL (≈ 6.81 µM) and the “fold lower potency in comparison to E. coli WT MIC” value (shortened to “fold lower potency in comparison”) was 4-8 fold. Further, on NfsA, the “NfsA activity” value was determined as 2.30 µM/min.

`O=C(Nc1nc(-c2ccc(F)cc2)cs1)c1ccc([N+](=O)[O-])s1` [compound 15, N-(4-(4-Fluorophenyl)thiazol-2-yl)-5-nitrothiophene-2-carboxamide]: the “MIC ∆nfsAB & ∆acrB+nfnB” value in data set [1] came to 0.6. Further, in the data set with E. coli ∆nfsB, the MIC worked out at 5 µg/mL (≈ 14.3 µM). The same compound displayed a concentration for half-maximal inhibition (IC50) at 24 h in “Cytotoxicity, MTS assay” of 10.2 µg/mL (≈ 29.2 µM). In addition, the “NfsB activity” value on NfsB was determined as 7.64 µM/min. In addition, in data set [2], the MIC Klebsiella pneumoniae came out at 5 µg/mL (≈ 14.3 µM) and the “fold lower potency in comparison” value is recorded as 4-8 fold. Besides, the “NfsA activity” value on NfsA is reported as 2.05 µM/min.

As to `COc1cc(-c2csc(NC(=O)c3ccc([N+](=O)[O-])s3)n2)ccc1Cl` [compound 20, N-(4-(4-chloro-3-methoxyphenyl)thiazol-2-yl)-5-nitrothiophene-2-carboxamide], in data set [1], the “MIC ∆nfsAB & ∆acrB+nfnB” value is reported as 0.6. In the data set with E. coli ∆nfsB, the MIC was determined as 2.5 µg/mL (≈ 6.32 µM). This compound also yielded an IC50 at 24 h in the data set “Cytotoxicity, MTS assay” of 8.3 µg/mL (≈ 21 µM). Further, the “NfsB activity” value on NfsB is listed as 3.50 µM/min. For the same compound, in data set [2], the MIC Klebsiella pneumoniae stood at 10 µg/mL (≈ 25.3 µM) and the “fold lower potency in comparison” value was 4-8 fold. For the same compound, the “NfsA activity” value at NfsA amounted to 0.61 µM/min.

Take `O=C1CN(/N=C/c2ccc([N+](=O)[O-])o2)C(=O)N1` [nitrofurantoin, reference compound]: the MIC in the data set with E. coli ∆nfsB was found to be 2.5 µg/mL (≈ 10.5 µM). The “NfsB activity” value on NfsB is 3.50 µM/min. Further, the “NfsA activity” value on NfsA is recorded as 3.58 µM/min.

These data come from PMC5940854, “Nitrothiophene carboxamides, a novel narrow spectrum antibacterial series: Mechanism of action and Efficacy” (Scientific Reports, 2018).
